Data as given in patent US12077503B2, “Substituted cyclic amides and their use as herbicides” (FMC CORPORATION, priority 2015, dated 2024).

Legend:
Format in all cases: in vivo
[1] = tested on: corn (Zea mays); assay: Test G Pre-Emergence Protocol; details: Zea mays, pre-emergence, 312 h, evaluated after 13 days; for plant injury at 15.625 g/ha: 15.625 g ai/ha; for plant injury at 15.625 g/ha / plant injury at 250 g/ha: read-out: Corn damage rating (100=total damage to plant; 0=no damage to plant); for plant injury at 62.5 g/ha: 62.5 g ai/ha, 100=total damage to plant, 0=no damage to plant, read-out: plant damage rating, Corn; for plant injury at 250 g/ha: 250 g ai/ha
Description: Seeds of corn (Zea mays), giant foxtail (Setaria faberi), barnyardgrass (Echinochloa crus-galli), ivy-leaved morning glory (Ipomoea hederacea), redroot pigweed (Amaranthus retroflexus) and velvetleaf (Abutilon theophrasti) were sown in standard soil in pots. After cultivation for one day under controlled conditions in a glasshouse (at 24/16° C., day/night; 14 hours light; 65% humidity), the plants were sprayed with an aqueous spray solution derived from the formulation of the technical active ingredient in acetone/water (50:50) solution containing 0.5% Tween 20 (polyoxyethylene sorbitan monolaurate, CAS RN 9005-64-5) to give a final dose of 15.625, 62.5 or 250 g/ha of test compound.
The test plants were then grown on under controlled conditions in a glasshouse (at 24/16° C., day/night; 14 hours light; 65% humidity) and watered twice daily. After 13 days the test was evaluated (100=total damage to plant; 0=no damage to plant). A dash (-) means no test result.

[2] = tested on: johnsongrass (Sorghum halepense); assay: Test E preemergence; details: scale 0 to 100
From the text: (§1) Seeds of plant species selected from corn (Zea mays), soybean (Glycine max), velvetleaf (Abutilon theophrasti), lambsquarters (Chenopodium album), poinsettia, wild (wild poinsettia, Euphorbia heterophylla), pigweed, palmer (palmer pigweed, Amaranthus palmeri), waterhemp (common waterhemp, Amaranthus rudis), surinam grass (Brachiaria decumbens), crabgrass, large (large crabgrass, Digitaria sangumnalis), crabgrass, Brazil (Brazilian crabgrass, Digitaria horizontalis), Panicum, fall (fall Panicum, Panicum dichotomiflorum), foxtail, giant (giant foxtail, Setaria faberii), foxtail, green (green foxtail, Setaria viridis), goosegrass (Eleusine indica), johnsongrass (Sorghum halepense), ragweed (common ragweed, Ambrosia elatior), barnyardgrass (Echinochloa crus-galli), sandbur (southern sandbur, Cenchrus echinatus), arrowleaf Sida (Sida rhombifolia), ryegrass, Italian (Italian ryegrass, Lolium multiflorum), dayflower, VA (Virginia dayflower, Commelina virginica), field bindweed (Convolvulus arvensis), morningglory (Ipomoea coccinea), nightshade (eastern black nightshade, Solanum ptycanthum), Kochia (Kochia scoparia), nutsedge, yellow (yellow nutsedge, Cyperus esculentus), horseweed (Conyza canadensis), and beggarticks (hairy beggarticks, Bidens pilosa), were planted into a silt loam soil and treated preemergence with test chemicals formulated in a non-phytotoxic solvent mixture which included a surfactant.
(§2) At the same time, plants selected from these crop and weed species were planted in pots containing Sunshine Redi-Earth planting medium comprising spaghnum peat moss, vermiculite, starter nutrients and dolomitic limestone and treated with postemergence applications of a test chemical formulated in the same manner. Plants ranged in height from 2 to 18 cm (1- to 4-leaf stage) for postemergence treatments. Treated plants and controls were maintained in a greenhouse for 14 to 21 d, after which time all species were compared to controls and visually evaluated. Plant response ratings, summarized in Table E, are based on a scale of 0 to 100 where 0 is no effect and 100 is complete control. A dash (-) response means no test result.

[3] = tested on: beggarticks (hairy beggarticks, Bidens pilosa); assay: Test E preemergence; details: scale 0 to 100
From the text: as §1, §2

[4] = tested on: poinsettia, wild (wild poinsettia, Euphorbia heterophylla); assay: Test E preemergence; details: scale 0 to 100
From the text: as §1, §2

[5] = tested on: crabgrass, Brazil (Brazilian crabgrass, Digitaria horizontalis); assay: Test E preemergence; details: scale 0 to 100
From the text: as §1, §2

[6] = tested on: Panicum, fall (fall Panicum, Panicum dichotomiflorum); assay: Test E preemergence; details: scale 0 to 100
From the text: as §1, §2

[7] = tested on: field bindweed (Convolvulus arvensis); assay: Test E preemergence; details: scale 0 to 100
From the text: as §1, §2

[8] = tested on: goosegrass (Eleusine indica); assay: Test E preemergence; details: scale 0 to 100
From the text: as §1, §2

[9] = tested on: sandbur (southern sandbur, Cenchrus echinatus); assay: Test E preemergence; details: scale 0 to 100
From the text: as §1, §2

[10] = tested on: corn (Zea mays); assay: Test E preemergence; details: scale 0 to 100
From the text: as §1, §2

[11] = tested on: crabgrass, large (large crabgrass, Digitaria sangumnalis); assay: Test E preemergence; details: scale 0 to 100
From the text: as §1, §2

[12] = tested on: velvetleaf (Abutilon theophrasti); assay: Test E preemergence; details: scale 0 to 100
From the text: as §1, §2

[13] = tested on: waterhemp (common waterhemp, Amaranthus rudis); assay: Test E preemergence; details: scale 0 to 100
From the text: as §1, §2

[14] = tested on: soybean (Glycine max); assay: Test E preemergence; details: scale 0 to 100
From the text: as §1, §2

[15] = tested on: lambsquarters (Chenopodium album); assay: Test E preemergence; details: scale 0 to 100
From the text: as §1, §2

[16] = tested on: morningglory (Ipomoea coccinea); assay: Test E preemergence; details: scale 0 to 100
From the text: as §1, §2

[17] = tested on: dayflower, VA (Virginia dayflower, Commelina virginica); assay: Test E preemergence; details: scale 0 to 100
From the text: as §1, §2

CN1C[C@H](c2ccc(C(F)(F)F)cc2)[C@@H](C(=O)Nc2cccnc2F)C1=O [Compound 1396]
plant injury at 15.625 g/ha [1]: 70%
plant injury at 62.5 g/ha [1]: 80%
plant injury at 250 g/ha [1]: 80%

CN1C[C@H](c2ccc(Cl)cc2)[C@@H](C(=O)Nc2cccc(F)n2)C1=O [Compound 1399]
plant injury at 15.625 g/ha [1]: 0%
plant injury at 62.5 g/ha [1]: 10%
plant injury at 250 g/ha [1]: 60%

CN1CC(c2cccc(OC(F)(F)C(F)F)c2)C(C(=O)Nc2cccc(F)c2F)C1=O (stereo not shown) [Compound 392]
Plant response rating: Johnsongrass ([2]; 31 g ai/ha): 25
Plant response rating: Johnsongrass ([2]; 62 g ai/ha): 30
Plant response rating: Johnsongrass ([2]; 125 g ai/ha): 50
Plant response rating: Johnsongrass ([2]; 250 g ai/ha): 95
Plant response rating: Beggarticks ([3]; 31 g ai/ha): 0
Plant response rating: Beggarticks ([3]; 62 g ai/ha): 0
Plant response rating: Beggarticks ([3]; 125 g ai/ha): 0
Plant response rating: Beggarticks ([3]; 250 g ai/ha): 0
Plant response rating: Poinsettia, Wild ([4]; 31 g ai/ha): 0
Plant response rating: Poinsettia, Wild ([4]; 62 g ai/ha): 0
Plant response rating: Poinsettia, Wild ([4]; 125 g ai/ha): 35
Plant response rating: Poinsettia, Wild ([4]; 250 g ai/ha): 20
Plant response rating: Crabgrass, Brazil ([5]; 31 g ai/ha): 98
Plant response rating: Crabgrass, Brazil ([5]; 62 g ai/ha): 98
Plant response rating: Crabgrass, Brazil ([5]; 125 g ai/ha): 98
Plant response rating: Crabgrass, Brazil ([5]; 250 g ai/ha): 98
Plant response rating: Panicum, Fall ([6]; 31 g ai/ha): 95
Plant response rating: Panicum, Fall ([6]; 62 g ai/ha): 98
Plant response rating: Panicum, Fall ([6]; 125 g ai/ha): 98
Plant response rating: Panicum, Fall ([6]; 250 g ai/ha): 98
Plant response rating: Field Bindweed ([7]; 31 g ai/ha): 0
Plant response rating: Field Bindweed ([7]; 62 g ai/ha): 0
Plant response rating: Field Bindweed ([7]; 125 g ai/ha): 35
Plant response rating: Field Bindweed ([7]; 250 g ai/ha): 70
Plant response rating: Goosegrass ([8]; 31 g ai/ha): 85
Plant response rating: Goosegrass ([8]; 62 g ai/ha): 90
Plant response rating: Goosegrass ([8]; 125 g ai/ha): 95
Plant response rating: Goosegrass ([8]; 250 g ai/ha): 95
Plant response rating: Sandbur ([9]; 31 g ai/ha): 0
Plant response rating: Sandbur ([9]; 62 g ai/ha): 60
Plant response rating: Sandbur ([9]; 125 g ai/ha): 60
Plant response rating: Sandbur ([9]; 250 g ai/ha): 90
Plant response rating: Corn ([10]; 31 g ai/ha): 0
Plant response rating: Corn ([10]; 62 g ai/ha): 15
Plant response rating: Corn ([10]; 125 g ai/ha): 50
Plant response rating: Corn ([10]; 250 g ai/ha): 70
Plant response rating: Crabgrass, Large ([11]; 31 g ai/ha): 90
Plant response rating: Crabgrass, Large ([11]; 62 g ai/ha): 95
Plant response rating: Crabgrass, Large ([11]; 125 g ai/ha): 98
Plant response rating: Crabgrass, Large ([11]; 250 g ai/ha): 98
Plant response rating: Velvetleaf ([12]; 31 g ai/ha): 0
Plant response rating: Velvetleaf ([12]; 62 g ai/ha): 20
Plant response rating: Velvetleaf ([12]; 125 g ai/ha): 50
Plant response rating: Velvetleaf ([12]; 250 g ai/ha): 75
Plant response rating: Waterhemp ([13]; 31 g ai/ha): 35
Plant response rating: Waterhemp ([13]; 62 g ai/ha): 80
Plant response rating: Waterhemp ([13]; 125 g ai/ha): 70
Plant response rating: Waterhemp ([13]; 250 g ai/ha): 90
Plant response rating: Soybean ([14]; 31 g ai/ha): 0
Plant response rating: Soybean ([14]; 62 g ai/ha): 0
Plant response rating: Soybean ([14]; 125 g ai/ha): 20
Plant response rating: Soybean ([14]; 250 g ai/ha): 25
Plant response rating: Lambsquarters ([15]; 31 g ai/ha): 75
Plant response rating: Lambsquarters ([15]; 62 g ai/ha): 75
Plant response rating: Lambsquarters ([15]; 125 g ai/ha): 98
Plant response rating: Lambsquarters ([15]; 250 g ai/ha): 100
Plant response rating: Morningglory ([16]; 31 g ai/ha): 0
Plant response rating: Morningglory ([16]; 62 g ai/ha): 0
Plant response rating: Morningglory ([16]; 125 g ai/ha): 0
Plant response rating: Morningglory ([16]; 250 g ai/ha): 0
Plant response rating: Dayflower, VA ([17]; 31 g ai/ha): 0
Plant response rating: Dayflower, VA ([17]; 62 g ai/ha): 0
Plant response rating: Dayflower, VA ([17]; 125 g ai/ha): 0
Plant response rating: Dayflower, VA ([17]; 250 g ai/ha): 35
